Results published in patent US4501750A, “Thiazole compounds, a process for preparing same and a pharmaceutical composition containing the thiazole compounds” (Mitsui Toatsu Kaguku Kabushiki Kaisha, priority 1981, dated 1985).
Structures can show the parent of a compound that is named as a salt.

System: delayed hypersensitivity induced by picryl chloride
Experiment: Reinforcement Test of Delayed Hypersensitivity (picryl chloride, pinna thickness)
Assay type: in vivo, ICR male mice
Details: 50 mg per Kg orally, simultaneously with sensitization; 24 hours after challenging; average of both pinnae of eight mice; * P<0.05, ** P<0.01 vs control
Source text: The delayed hypersensitivity induced on a mouse when picryl chloride(2-chloro-1,3,5-trinitrobenzene) is coated on the skin of the mouse is known as a typical cellular immunity.
The above test system was used for the reinforcement tests of the delayed hypersensitivity.
Groups of eight ICR male mice, each having a body weight of about 30 g, were used for the test.
Sensitization was effected by coating a 3% solution of picryl chloride in a 4/1 mixture of olive oil and acetone on the shaved abdomen of each of the mice.
Simultaneously with the sensitization, a solution or suspension of a compound of the present invention dissolved or suspended in a 0.2% solution of carboxymethylcellulose in a physiological saline was orally administered to the mouse at a dose of 50 mg per Kg of its body weight. To each mouse of a control group, a 0.2% carboxymethylcellulose solution was similarly administered in a physiological saline.
The delayed hypersensitivity was induced 7 days after the sensitization by pinching each of the pinnae of each mouse with a pair of forceps whose tip portions were wrapped with a felt impregnated with a 1% solution of picryl chloride in olive oil and coating the pinnae with the solution. The thickness of each pinna was measured before the challenging and 24 hours after the challenging and the ratio of increase of the thickness (average value of both of the pinnae of the eight mice) is shown in Table 1.
For comparison, a similar test was carried out using Levamisole hydrochloride.
F.t tests were carried out on the thus-obtained test results.

Question: Which “Ratio of Increase of Pinna Thickness” value does the source give for `c1ccc([C@H]2CN3CCSC3=N2)cc1` [Levamisole.HCl, Levamisole hydrochloride, reference compound] here?
Answer: 31.2%

Question: For `O=C(Nc1nc(-c2ccccc2)cs1)C(=O)Nc1nc(-c2ccccc2)cs1` [drawing 6], which “Ratio of Increase of Pinna Thickness” value is on record?
Answer: 30.3%

Question: With `O=C(Nc1nc(-c2ccc(Cl)cc2)cs1)C(=O)Nc1nc(-c2ccc(Cl)cc2)cs1` [drawing 7] as the compound, how does the “Ratio of Increase of Pinna Thickness” value read?
Answer: 29.5%

Question: For `COc1ccc(-c2csc(NC(=O)C(=O)Nc3nc(-c4ccc(OC)cc4)cs3)n2)cc1` [drawing 8], which “Ratio of Increase of Pinna Thickness” value is on record?
Answer: 36.5%

Question: With `CSc1sc(NC(=O)C(=O)Nc2nc(-c3ccccc3)c(SC)s2)nc1-c1ccccc1` [drawing 9] as the compound, how does the “Ratio of Increase of Pinna Thickness” value read?
Answer: 27.3%

Question: With `CC(Cl)C(=O)Nc1nc(-c2ccccc2)cs1` (stereo not drawn) [drawing 10] as the compound, how does the “Ratio of Increase of Pinna Thickness” value read?
Answer: 36.1%

Question: Which “Ratio of Increase of Pinna Thickness” value does the source give for `CC(Br)C(=O)Nc1nc(-c2ccccc2)cs1` (stereo not drawn) [drawing 11] here?
Answer: 32.9%

System: not listed separately
Experiment: Acute Toxicity Test through Oral Administration
Assay type: in vivo
Details: ddY male mice, 7 days observation
Source text: To each of a group of five ddY male mice, was orally administered a medicine dissolved or suspended in physiological saline.

Question: For `c1ccc([C@H]2CN3CCSC3=N2)cc1` [Levamisole.HCl, Levamisole hydrochloride, reference compound], which “estimated LD50” value is on record?
Answer: 200 to 300 mg/kg

System: adjuvant arthritis
Experiment: Adjuvant Arthritis Test (Mycobacterium tuberculosis adjuvant)
Assay type: in vivo, SD male rats
Details: 5 mg per Kg subcutaneously, 9 times in total; left hind leg; * P<0.05, ** P<0.01 vs control
Source text: The adjuvant arthritis in rats caused by the injection of a Mycobacterium tuberculosis adjuvant is often utilized for a model test of chronic rheumatoid arthritis in human.
The mechanism of manifestation of this disease has not completely been elucidated, but it is known that the cellular immunity plays an important role. The immuno-modulating activity of the compounds of the present invention was investigated in accordance with this known adjuvant arthritis test.
8-Week-old SD male rats were used for the test. In 0.1 ml of fluid paraffin, 0.4 mg of dry-dead cells of Mycobacterium tuberculosis were suspended, and the suspension was injected under the heel skin of the right hind leg of each rat. Each of the compounds of the present invention was subcutaneously administered 9 times in total before and after the injection of the adjuvant. Each of the compounds of the present invention was dissolved or suspended in a 0.2% solution of carboxymethylcellulose in physiological saline and administered to each rat at a dose of 5 mg per Kg of the body weight. The swollen volume of the left hind leg was measured during the period of from the day of injection to the day of completion of the test, and the swelling ratio was calculated. For comparison, a similar test was conducted using Levamisole hydrochloride. F.t tests were carried out on the test results obtained.

Question: Which “Swell suppression ratio to control group (average value from 16th to 20th days)” value (“Swell suppression ratio to control group” for short) does the source give for `c1ccc([C@H]2CN3CCSC3=N2)cc1` [Levamisole.HCl, Levamisole hydrochloride, reference compound] here?
Answer: 19.8%

Question: Which “Swell suppression ratio to control group” value does the source give for `O=C(Nc1nc(-c2ccccc2)cs1)C(=O)Nc1nc(-c2ccccc2)cs1` [drawing 12] here?
Answer: 51.0%

Question: For `O=C(Nc1nc(-c2ccc(Cl)cc2)cs1)C(=O)Nc1nc(-c2ccc(Cl)cc2)cs1` [drawing 13], which “Swell suppression ratio to control group” value is on record?
Answer: 51.9%

Question: For `COc1ccc(-c2csc(NC(=O)C(=O)Nc3nc(-c4ccc(OC)cc4)cs3)n2)cc1` [drawing 14], which “Swell suppression ratio to control group” value is on record?
Answer: 14.1%

Question: Which “Swell suppression ratio to control group” value does the source give for `CSc1sc(NC(=O)C(=O)Nc2nc(-c3ccccc3)c(SC)s2)nc1-c1ccccc1` [drawing 15] here?
Answer: 35.5%

Question: With `CC(Cl)C(=O)Nc1nc(-c2ccccc2)cs1` (stereo not drawn) [drawing 16] as the compound, how does the “Swell suppression ratio to control group” value read?
Answer: 12.1%

Question: For `CC(Br)C(=O)Nc1nc(-c2ccccc2)cs1` (stereo not drawn) [drawing 17], which “Swell suppression ratio to control group” value is on record?
Answer: 20.0%
